Measured values taken from US4927922A, “7β-(substituted)amino-3-substituted cephalosporanic acids and esters” (American Cyanamid Company, priority 1988, dated 1990).
≈ marks a conversion by molar mass, not a printed value. Where two headings read alike, the source gives them in different places.

What was measured:
Assay in all cases: in vitro agar dilution test (MIC)
Assay type in all cases: cell-based
[1] = test system: Klebsiella pneumoniae AD (MP)
Protocol: (§1) The compounds of the present invention are active antibacterial agents as established in the in vitro agar dilution test using Mueller-Hinton agar. The test compounds were dissolved in a mixture of dimethyl sulfoxide and aqueous sodium bicarbonate and applied as 1 ml of drug solution plus 9 ml of agar per plate. The innoculum was a 5 hour TSB shake culture diluted to 10^-2 with Mueller-Hinton broth and applied to the plates with a Steers' Replicator.
(§2) The results of this test on representative compounds of this invention (identified by Example Number) against a variety of microorganisms appear in Tables I and II in terms of minimal inhibitory concentration (MIC) in mcg/ml together with Cefotaxime, Cephalothin and Ampicillin as positive controls.

[2] = test system: Staphylococcus saprophyticus VGH 84-50; settings: VGH8450
Protocol: as §1, §2

[3] = test system: Enterobacter aerogenes VGH 84-36; settings: Klebsiella aerogenes, VGH8436
Protocol: as §1, §2

[4] = test system: Escherichia coli CMC 84-16; settings: CMC8416
Protocol: as §1, §2

[5] = test system: Pseudomonas aeruginosa 12-4-4 (MP)
Protocol: as §1, §2

[6] = test system: Enterobacter cloacae K 84-10; settings: K8410
Protocol: as §1, §2

[7] = test system: Serratia marcesans F 35 (MP)
Protocol: as §1, §2

[8] = test system: Staphylococcus aureus CMC 83-128; settings: CMC83128
Protocol: as §1, §2

[9] = test system: Escherichia coli No. 311 N.A.; settings: Mueller-Hinton agar
Protocol: as §1, §2

[10] = test system: Escherichia coli No. 311(Parent); settings: Mueller-Hinton agar
Protocol: as §1, §2

[11] = test system: Staphylococcus aureus CMC 83-132; settings: CMC83132
Protocol: as §1, §2

[12] = test system: Staphylococcus aureus Smith (MP)
Protocol: as §1, §2

[13] = test system: Staphylococcus aureus ATCC 25923; settings: ATCC25923
Protocol: as §1, §2

[14] = test system: Escherichia coli CMC 84-11; settings: CMC8411, Mueller-Hinton agar
Protocol: as §1, §2

[15] = test system: Escherichia coli ATCC 25922; settings: ATCC25922, Mueller-Hinton agar, Table II
Protocol: as §1, §2

[16] = test system: Morganella morganii CMC 84-37; settings: CMC8437
Protocol: as §1, §2

[17] = test system: Serratia marcesans K 84-18; settings: K8418
Protocol: as §1, §2

[18] = test system: Morganella morganii VGH 84-11; settings: VGH8411
Protocol: as §1, §2

[19] = test system: Staphylococcus aureus CMC 83-131; settings: CMC83131
Protocol: as §1, §2

[20] = test system: Proteus rettgheri CMC 84-41
Protocol: as §1, §2

[21] = test system: Klebsiella pneumoniae MOR 84-4; settings: MOR844
Protocol: as §1, §2

Enterococcus VGH 84-65 = settings: VGH8465
Protocol: as §1, §2

[22] = test system: Staphylococcus epidermidis IO 83-58; settings: IO8358
Protocol: as §1, §2

[23] = test system: Enterobacter cloacae VGH 84-37; settings: VGH8437
Protocol: as §1, §2

[24] = test system: Pseudomonas aeruginosa VGH 84-4; settings: VGH844
Protocol: as §1, §2

[25] = test system: Staphylococcus epidermidis CMC 83-135; settings: CMC83135
Protocol: as §1, §2

[26] = test system: Klebsiella oxytoca MOR 84-28; settings: MOR8428
Protocol: as §1, §2

[27] = test system: Acinetobacter calcoaceticus MOR 84-43; settings: MOR8443
Protocol: as §1, §2

[28] = Klebsiella pneumoniae AD (MP), Mueller-Hinton agar, Table II, read-out: MIC
[29] = Staphylococcus saprophyticus VGH 84-50, Mueller-Hinton agar, read-out: MIC
[30] = Staphylococcus aureus CMC 83-128, Mueller-Hinton agar, read-out: MIC
[31] = Staphylococcus aureus CMC 83-132, Mueller-Hinton agar, read-out: MIC
[32] = Staphylococcus aureus Smith (MP), Mueller-Hinton agar, Table II, read-out: MIC
[33] = Staphylococcus aureus ATCC 25923, Mueller-Hinton agar, Table II, read-out: MIC
[34] = Serratia marcesans K 84-18, Mueller-Hinton agar, read-out: MIC
[35] = Staphylococcus aureus CMC 83-131, Mueller-Hinton agar, read-out: MIC
[36] = Proteus rettgheri CMC 84-41, Mueller-Hinton agar, read-out: MIC
[37] = Klebsiella pneumoniae MOR 84-4, Mueller-Hinton agar, read-out: MIC
[38] = Enterococcus VGH 84-65, Mueller-Hinton agar, read-out: MIC
[39] = Staphylococcus epidermidis IO 83-58, Mueller-Hinton agar, read-out: MIC
[40] = Staphylococcus epidermidis CMC 83-135, Mueller-Hinton agar, read-out: MIC
[41] = Klebsiella oxytoca MOR 84-28, Mueller-Hinton agar, read-out: MIC
[42] = Acinetobacter calcoaceticus MOR 84-43, Mueller-Hinton agar, read-out: MIC
[43] = Enterobacter aerogenes VGH 84-36, Mueller-Hinton agar, read-out: MIC
[44] = Escherichia coli CMC 84-16, Mueller-Hinton agar, read-out: MIC
[45] = Pseudomonas aeruginosa 12-4-4 (MP), Mueller-Hinton agar, Table II, read-out: MIC
[46] = Enterobacter cloacae K 84-10, Mueller-Hinton agar, read-out: MIC
[47] = Serratia marcesans F 35 (MP), Mueller-Hinton agar, read-out: MIC
[48] = Morganella morganii CMC 84-37, Mueller-Hinton agar, read-out: MIC
[49] = Morganella morganii VGH 84-11, Mueller-Hinton agar, read-out: MIC
[50] = Enterobacter cloacae VGH 84-37, Mueller-Hinton agar, read-out: MIC
[51] = Pseudomonas aeruginosa VGH 84-4, Mueller-Hinton agar, read-out: MIC

SMILES: CC1(C)S[C@@H]2[C@H](NC(=O)[C@H](N)c3ccccc3)C(=O)N2[C@H]1C(=O)O [Ampicillin, reference compound]
- MIC [1, 28]: 0.25 µg/mL (≈ 0.715 µM)
- MIC [2, 29]: ≤ 0.12 µg/mL
- MIC [3]: 256 µg/mL (≈ 733 µM)
- MIC ([4]; Escherichia coli): > 256 µg/mL
- MIC ([5]; Pseudomonas aeruginosa): > 256 µg/mL
- MIC ([6]; Enterobacter cloacae): > 256 µg/mL
- MIC ([7]; Serratia): > 256 µg/mL
- MIC [8, 30]: ≤ 0.12 µg/mL
- MIC [9]: 2 µg/mL (≈ 5.72 µM)
- MIC [10]: 2 µg/mL (≈ 5.72 µM)
- MIC [11, 31]: 1 µg/mL (≈ 2.86 µM)
- MIC [12, 32]: ≤ 0.12 µg/mL
- MIC [13, 33]: ≤ 0.12 µg/mL
- MIC [14]: 4 µg/mL (≈ 11.4 µM)
- MIC [15]: 4 µg/mL (≈ 11.4 µM)
- MIC ([16]; Morganella morganii): 256 µg/mL (≈ 733 µM)
- MIC [17, 34]: 64 µg/mL (≈ 183 µM)
- MIC ([18]; Morganella morganii): > 256 µg/mL
- MIC [19, 35]: 2 µg/mL (≈ 5.72 µM)
- MIC [20, 36]: 0.5 µg/mL (≈ 1.43 µM)
- MIC [21, 37]: 32 µg/mL (≈ 91.6 µM)
- MIC (Enterococcus VGH 84-65; [38]): 1 µg/mL (≈ 2.86 µM)
- MIC [22, 39]: 16 µg/mL (≈ 45.8 µM)
- MIC ([23]; Enterobacter cloacae): > 256 µg/mL
- MIC ([24]; Pseudomonas aeruginosa): > 256 µg/mL
- MIC [25, 40]: ≤ 0.12 µg/mL
- MIC [26, 41]: 32 µg/mL (≈ 91.6 µM)
- MIC [27, 42]: 32 µg/mL (≈ 91.6 µM)

SMILES: Cc1snnc1SCC1=C(C(=O)O)N2C(=O)[C@@H](NC(=O)Cc3cccs3)[C@H]2SC1 [Example 8, (6R-trans)-3-[[(5-Methyl-1,2,3-thiadiazol-4-yl)thio]methyl]-8-oxo-7-[(2-thienylacetyl)amino]-5-thia-1-azabicyclo[4.2.0]oct-2-ene-2-carboxylic acid]
- MIC [1, 28]: 8 µg/mL (≈ 17.1 µM)
- MIC [2, 29]: 1 µg/mL (≈ 2.13 µM)
- MIC [3, 43]: 256 µg/mL (≈ 546 µM)
- MIC [4, 44]: 64 µg/mL (≈ 137 µM)
- MIC [5, 45]: > 256 µg/mL
- MIC [6, 46]: > 256 µg/mL
- MIC [7, 47]: > 256 µg/mL
- MIC [8, 30]: 1 µg/mL (≈ 2.13 µM)
- MIC [9]: 32 µg/mL (≈ 68.3 µM)
- MIC [10]: 32 µg/mL (≈ 68.3 µM)
- MIC [11, 31]: 32 µg/mL (≈ 68.3 µM)
- MIC [12, 32]: ≤ 0.12 µg/mL
- MIC [13, 33]: 0.5 µg/mL (≈ 1.07 µM)
- MIC [14]: 64 µg/mL (≈ 137 µM)
- MIC [15]: 64 µg/mL (≈ 137 µM)
- MIC [16, 48]: > 256 µg/mL
- MIC [17, 34]: > 256 µg/mL
- MIC [18, 49]: > 256 µg/mL
- MIC [19, 35]: 32 µg/mL (≈ 68.3 µM)
- MIC [20, 36]: 2 µg/mL (≈ 4.27 µM)
- MIC [21, 37]: 32 µg/mL (≈ 68.3 µM)
- MIC (Enterococcus VGH 84-65; [38]): 32 µg/mL (≈ 68.3 µM)
- MIC [22, 39]: 2 µg/mL (≈ 4.27 µM)
- MIC [23, 50]: > 256 µg/mL
- MIC [24, 51]: > 256 µg/mL
- MIC [25, 40]: ≤ 0.12 µg/mL
- MIC [26, 41]: 256 µg/mL (≈ 546 µM)
- MIC [27, 42]: > 256 µg/mL

SMILES: CCc1snnc1SCC1=C(C(=O)O)N2C(=O)[C@@H](NC(=O)Cc3cccs3)[C@H]2SC1 [Example 10, (6R-trans)-3-[[(5-Ethyl-1,2,3-thiadiazol-4-yl)thio]methyl]-8-oxo-7-[(2-thienylacetyl)amino]-5-thia-1-azabicyclo[4.2.0]oct-2-ene-2-carboxylic acid]
- MIC [1, 28]: 16 µg/mL (≈ 33.2 µM)
- MIC [2, 29]: 1 µg/mL (≈ 2.07 µM)
- MIC [3, 43]: > 256 µg/mL
- MIC [4, 44]: 128 µg/mL (≈ 265 µM)
- MIC [5, 45]: > 256 µg/mL
- MIC [6, 46]: > 256 µg/mL
- MIC [7, 47]: > 256 µg/mL
- MIC [8, 30]: 1 µg/mL (≈ 2.07 µM)
- MIC [9]: 64 µg/mL (≈ 133 µM)
- MIC [10]: 64 µg/mL (≈ 133 µM)
- MIC [11, 31]: 32 µg/mL (≈ 66.3 µM)
- MIC [12, 32]: ≤ 0.12 µg/mL
- MIC [13, 33]: 0.5 µg/mL (≈ 1.04 µM)
- MIC [14]: 128 µg/mL (≈ 265 µM)
- MIC [15]: 64 µg/mL (≈ 133 µM)
- MIC [16, 48]: > 256 µg/mL
- MIC [17, 34]: > 256 µg/mL
- MIC [18, 49]: > 256 µg/mL
- MIC [19, 35]: 32 µg/mL (≈ 66.3 µM)
- MIC [20, 36]: 4 µg/mL (≈ 8.29 µM)
- MIC [21, 37]: 64 µg/mL (≈ 133 µM)
- MIC (Enterococcus VGH 84-65; [38]): 32 µg/mL (≈ 66.3 µM)
- MIC [22, 39]: 2 µg/mL (≈ 4.14 µM)
- MIC [23, 50]: > 256 µg/mL
- MIC [24, 51]: > 256 µg/mL
- MIC [25, 40]: ≤ 0.12 µg/mL
- MIC [26, 41]: 128 µg/mL (≈ 265 µM)
- MIC [27, 42]: > 256 µg/mL

SMILES: CC(=O)OCC1=C(C(=O)O)N2C(=O)[C@@H](NC(=O)Cc3cccs3)[C@H]2SC1 [Cephalothin, reference compound]
- MIC ([1]; Klebsiella pneumoniae): 1 µg/mL (≈ 2.52 µM)
- MIC ([2]; Staphylococcus saprophyticus): 0.25 µg/mL (≈ 0.631 µM)
- MIC [3]: > 256 µg/mL
- MIC [4, 44]: 16 µg/mL (≈ 40.4 µM)
- MIC ([5]; Pseudomonas aeruginosa): > 256 µg/mL
- MIC ([6]; Enterobacter cloacae): > 256 µg/mL
- MIC ([7]; Serratia): > 256 µg/mL
- MIC ([8]; Staphylococcus aureus): ≤ 0.12 µg/mL
- MIC [9]: 8 µg/mL (≈ 20.2 µM)
- MIC [10]: 8 µg/mL (≈ 20.2 µM)
- MIC ([11]; Staphylococcus aureus): 32 µg/mL (≈ 80.7 µM)
- MIC ([12]; Staphylococcus aureus): ≤ 0.12 µg/mL
- MIC ([13]; Staphylococcus aureus): 0.25 µg/mL (≈ 0.631 µM)
- MIC [14]: 8 µg/mL (≈ 20.2 µM)
- MIC [15]: 16 µg/mL (≈ 40.4 µM)
- MIC ([16]; Morganella morganii): > 256 µg/mL
- MIC ([17]; Serratia): > 256 µg/mL
- MIC ([18]; Morganella morganii): > 256 µg/mL
- MIC ([19]; Staphylococcus aureus): 32 µg/mL (≈ 80.7 µM)
- MIC [20]: 4 µg/mL (≈ 10.1 µM)
- MIC ([21]; Klebsiella pneumoniae): 2 µg/mL (≈ 5.04 µM)
- MIC (Enterococcus VGH 84-65; Enterococcus): 32 µg/mL (≈ 80.7 µM)
- MIC ([22]; Staphylococcus epidermidis): 0.25 µg/mL (≈ 0.631 µM)
- MIC ([23]; Enterobacter cloacae): > 256 µg/mL
- MIC ([24]; Pseudomonas aeruginosa): > 256 µg/mL
- MIC ([25]; Staphylococcus epidermidis): ≤ 0.12 µg/mL
- MIC ([26]; Klebsiella oxytoca): > 256 µg/mL
- MIC ([27]; Acinetobacter calcoaceticus): > 256 µg/mL
